Laboratory results published in patent US20110014216A1, “Drug Transfer Based on Coenzyme A and Acyl Carrier Protein” (COVALYS B[…], priority 2007, published 2011).

System: fusion protein ACP-FRB
Experiment: in vitro protein trimer formation with ACP-FRB, ACP synthase, SDS-PAGE
Format: biochemical
Conditions: FRB protein fused to ACP tag, ACP synthase enzyme, overnight incubation at 4° C., coomassie stained
Experimental: A solution of maleimide derivative (34) (1.4 mg, 1 eq, 1.3 μmol) in DMF (0.7 mL) is added to a solution of CoA-SH (3.5 mg, 3.3 eq, 4.3 μmol) in Tris buffer (pH 7.5, 100 μL). The reaction mixture is shaken overnight at 31° C. The solvent is removed under vacuum and the crude mixture is purified via preparative HPLC. The structural ability of compound (35) to trigger the formation of a protein trimer is confirmed by in vitro experiments using the fusion protein ACP-FRB. 12.5 μL of a 48.5 μM solution of FRB protein fused to the ACP tag (Covalys) is mixed with 0.5 μL of a 0.2 mM solution of compound (35), 2.5 μL of a solution of [500 mM Tris-HCl pH 7.5; 1500 mM NaCl; 100 mM MgCl2], 9.5 μL of double distilled water and 0.5 μl of ACP synthase enzyme (available from Covalys). Following overnight incubation at 4° C., 5 μL of a solution of 100 mM Tris-HCl pH 6.8; 2% SDS; 35% glycerol; 10 mM EDTA; 20 mM DTT is added. The mixture is boiled for 5 min at 95° C. After cooling to rt, 30 μL of this solution is loaded on a 4-20% linear gradient SDS-PAGE gel. After electrophoresis, the proteins are coomassie stained in gel to visualize protein trimer.

## CCN(CC)c1ccc2nc3c4cc(OCC(=O)NC(COCCC(=O)NCCN5C(=O)CC(SCCNC(=O)CCNC(=O)[C@H](O)C(C)(C)COP(=O)([O-])OP(=O)([O-])OC[C@H]6O[C@@H](n7cnc8c(N)ncnc87)C(O)C6OP(=O)(O)O)C5=O)(COCCC(=O)NCCN5C(=O)CC(SCCNC(=O)CCNC(=O)[C@H](O)C(C)(C)COP(=O)([O-])OP(=O)([O-])OC[C@H]6O[C@@H](n7cnc8c(N)ncnc87)C(O)C6OP(=O)(O)O)C5=O)COCCC(=O)NCCN5C(=O)CC(SCCNC(=O)CCNC(=O)[C@H](O)C(C)(C)COP(=O)([O-])OP(=O)([O-])OC[C@H]6O[C@@H](n7cnc8c(N)ncnc87)C(O)C6OP(=O)(O)O)C5=O)ccc4c(=O)cc-3oc2c1.[Na+].[Na+].[Na+].[Na+].[Na+].[Na+] (stereo partly shown) [Compound 35, N-Tris-{[2-(2-(2-(CoA-S)-succinimido)ethylaminocarbonyl)ethoxy]-methyl}methyl nile red-oxyacetamide]
  structural ability to trigger the formation of a protein trimer: confirmed
